Measurements published in PubChem BioAssay AID330 (DTP/NCI, 2004).
Values joined by “and” are separate entries in the source; they are usually repeats but may differ in a detail not shown here. Identical values can stand only once. Toxic doses and inconclusive results are not listed.

System: P388 leukemia ip, CD2F1 mice, survival T/C
Assay: NCI In Vivo Anticancer Drug Screen. Data for tumor model P388 Leukemia (intraperitoneal) in CD2F1 (CDF1) mice
Settings: endpoint: median survival time, higher = longer survival
Procedure, shortened: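 Mice carrying the transplanted tumor received test compound or vehicle. Survival was recorded in each group, and the value is the treated-group measurement divided by that of the vehicle-treated control group.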

[1] = dose: 25.0 mg/kg/injection, schedule: Q01DX009 (ip), vehicle: saline
[2] = dose: 50.0 mg/kg/injection, schedule: Q01DX009 (ip), vehicle: saline
[3] = dose: 100.0 mg/kg/injection, schedule: Q01DX009 (ip), vehicle: saline

Compound: COC(=O)c1cc(-c2ccccn2)[nH]c(=O)c1C#N
- T/C (dose: 60.0 mg/kg/injection, schedule: Q01DX005 (ip), vehicle: saline): 104 % of control
- T/C (dose: 120.0 mg/kg/injection, schedule: Q01DX005 (ip), vehicle: saline): 100 % of control
- T/C (dose: 240.0 mg/kg/injection, schedule: Q01DX005 (ip), vehicle: saline): 97 % of control

Compound: COc1cc(NC(=O)c2ccc(NC(=O)c3ccc(N)cc3)cc2)c(OC)cc1N=Nc1cc(C)c(N=Nc2cc(S(=O)(=O)O)c3cccc(S(=O)(=O)O)c3c2)cc1C
- T/C (dose: 50.0 mg/kg/injection, schedule: Q01DX005 (ip), vehicle: saline with Tween-80): 100 % of control
- T/C (dose: 100.0 mg/kg/injection, schedule: Q01DX005 (ip), vehicle: saline with Tween-80): 94 % of control

Compound: Cc1nc2nc(=S)[nH]c(N)c2nc1C
- T/C (dose: 12.5 mg/kg/injection, schedule: Q01DX009 (ip), vehicle: saline): 103 % of control
- T/C [1]: 95 % of control
- T/C [2]: 95 % of control
- T/C [3]: 100 % of control

Compound: O=C(NCCCN1CC1)C(=O)NCCCN1CC1
- T/C (dose: 0.78 mg/kg/injection, schedule: Q01DX009 (ip), vehicle: saline): 156 % of control
- T/C (dose: 1.56 mg/kg/injection, schedule: Q01DX009 (ip), vehicle: saline): 190 % of control
- T/C (dose: 3.13 mg/kg/injection, schedule: Q01DX009 (ip), vehicle: saline): 190 % of control

Compound: CC(=O)OCC12C(=O)C(O)C(C)C3(CC(c4ccoc4)OC3OC(C)=O)C1CCCC21CO1 (stereo not drawn)
- T/C (dose: 15.0 mg/kg/injection, schedule: Q01DX005 (ip), vehicle: Klucel (hydroxypropylcellulose) (HPC)): 105 % of control
- T/C (dose: 30.0 mg/kg/injection, schedule: Q01DX005 (ip), vehicle: Klucel (hydroxypropylcellulose) (HPC)): 105 % of control
- T/C (dose: 60.0 mg/kg/injection, schedule: Q01DX005 (ip), vehicle: Klucel (hydroxypropylcellulose) (HPC)): 100 % of control

Compound: Nc1c2cc3c(cc2c[n+]2ccc4ccccc4c12)OCO3
- T/C (dose: 6.25 mg/kg/injection, schedule: Q04DX003 (ip), vehicle: distilled water + Tween-80): 111 % of control and 113 % of control and 115 % of control
- T/C (dose: 12.5 mg/kg/injection, schedule: Q04DX003 (ip), vehicle: distilled water + Tween-80): 113 % of control and 116 % of control and 120 % of control
- T/C (dose: 25.0 mg/kg/injection, schedule: Q04DX003 (ip), vehicle: distilled water + Tween-80): 111 % of control (2×) and 123 % of control

Compound: CCN(CC)CCNc1c(OC)cc(C)c2sc3ccccc3c(=O)c12
- T/C (dose: 50.0 mg/kg/injection, schedule: Q01DX009 (ip), vehicle: saline with Tween-80): 115 % of control
- T/C (dose: 100.0 mg/kg/injection, schedule: Q01DX009 (ip), vehicle: saline with Tween-80): 117 % of control

Compound: O=C1CC2(CCCC2)C(=O)N1c1ccccc1O
- T/C [1]: 103 % of control
- T/C (dose: 50.0 mg/kg/injection, schedule: Q01DX009 (ip), vehicle: Klucel (hydroxypropylcellulose) (HPC)): 118 % of control and 94 % of control
- T/C [2]: 96 % of control
- T/C (dose: 100.0 mg/kg/injection, schedule: Q01DX009 (ip), vehicle: Klucel (hydroxypropylcellulose) (HPC)): 100 % of control
- T/C [3]: 96 % of control
- T/C (dose: 200.0 mg/kg/injection, schedule: Q01DX009 (ip), vehicle: Klucel (hydroxypropylcellulose) (HPC)): 100 % of control
- T/C (dose: 200.0 mg/kg/injection, schedule: Q01DX009 (ip), vehicle: saline): 96 % of control

Compound: CC(=O)CC(C)=O.CC(=O)CC(C)=O.CCCn1ccnc1.O=N[O-].[Co]
- T/C (dose: 50.0 mg/kg/injection, schedule: Q01DX001 (ip), vehicle: saline with Tween-80): 95 % of control
- T/C (dose: 100.0 mg/kg/injection, schedule: Q01DX001 (ip), vehicle: saline with Tween-80): 101 % of control and 93 % of control
- T/C (dose: 200.0 mg/kg/injection, schedule: Q01DX001 (ip), vehicle: saline with Tween-80): 99 % of control and 120 % of control
- T/C (dose: 400.0 mg/kg/injection, schedule: Q01DX001 (ip), vehicle: saline with Tween-80): 108 % of control

Compound: COc1cc(O)c(O)c(C(C)(C)C)c1
- T/C (dose: 3.75 mg/kg/injection, schedule: Q01DX005 (ip), vehicle: saline with Tween-80): 103 % of control
- T/C (dose: 7.5 mg/kg/injection, schedule: Q01DX005 (ip), vehicle: saline with Tween-80): 105 % of control
- T/C (dose: 15.0 mg/kg/injection, schedule: Q01DX005 (ip), vehicle: saline with Tween-80): 108 % of control
- T/C (dose: 30.0 mg/kg/injection, schedule: Q01DX005 (ip), vehicle: saline with Tween-80): 116 % of control
- T/C (dose: 60.0 mg/kg/injection, schedule: Q01DX005 (ip), vehicle: saline with Tween-80): 107 % of control
- T/C (dose: 120.0 mg/kg/injection, schedule: Q01DX005 (ip), vehicle: saline with Tween-80): 95 % of control

Compound: COC1OC2COC(c3ccccc3)OC2C(OC(C)=O)C1OC(C)=O (stereo not drawn)
- T/C (dose: 12.5 mg/kg/injection, schedule: Q01DX009 (ip), vehicle: other): 98 % of control
- T/C (dose: 25.0 mg/kg/injection, schedule: Q01DX009 (ip), vehicle: other): 99 % of control
- T/C (dose: 50.0 mg/kg/injection, schedule: Q01DX009 (ip), vehicle: other): 100 % of control
- T/C (dose: 100.0 mg/kg/injection, schedule: Q01DX009 (ip), vehicle: other): 95 % of control
- T/C (dose: 200.0 mg/kg/injection, schedule: Q01DX009 (ip), vehicle: other): 100 % of control

Compound: CCCCCOC(=S)S
- T/C (dose: 9.37 mg/kg/injection, schedule: Q01DX009 (ip), vehicle: saline): 109 % of control
- T/C (dose: 9.37 mg/kg/injection, schedule: Q04DX003 (ip), vehicle: saline with Tween-80): 95 % of control
- T/C (dose: 18.75 mg/kg/injection, schedule: Q01DX009 (ip), vehicle: saline): 100 % of control
- T/C (dose: 18.75 mg/kg/injection, schedule: Q04DX003 (ip), vehicle: saline with Tween-80): 109 % of control
- T/C (dose: 37.5 mg/kg/injection, schedule: Q01DX009 (ip), vehicle: saline): 100 % of control
- T/C (dose: 37.5 mg/kg/injection, schedule: Q04DX003 (ip), vehicle: saline with Tween-80): 104 % of control
